Where “and” joins values, the source holds several entries; their conditions need not be identical. Identical values can stand only once. Inconclusive results and toxic doses are left out. Rule for the calls: active = survival T/C of 150% or more; inactive = T/C below 125% in these data.
Tested on: P388 leukemia ip, CD2F1 mice, survival T/C
Assay: NCI In Vivo Anticancer Drug Screen. Data for tumor model P388 Leukemia (intraperitoneal) in CD2F1 (CDF1) mice
Details: endpoint: median survival time, higher = longer survival
In short: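 Mice carrying the transplanted tumor received test compound or vehicle. Survival was recorded in each group, and the value is the treated-group measurement divided by that of the vehicle-treated control group.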

[1] = dose: 12.5 mg/kg/injection, schedule: Q01DX005 (ip), vehicle: Klucel (hydroxypropylcellulose) (HPC)
[2] = dose: 100.0 mg/kg/injection, schedule: Q04DX003 (ip), vehicle: saline
[3] = dose: 100.0 mg/kg/injection, schedule: Q01DX009 (ip), vehicle: Klucel (hydroxypropylcellulose) (HPC)
[4] = dose: 200.0 mg/kg/injection, schedule: Q01DX009 (ip), vehicle: Klucel (hydroxypropylcellulose) (HPC)
[5] = dose: 12.5 mg/kg/injection, schedule: Q01DX009 (ip), vehicle: saline
[6] = dose: 25.0 mg/kg/injection, schedule: Q01DX009 (ip), vehicle: saline
[7] = dose: 50.0 mg/kg/injection, schedule: Q01DX009 (ip), vehicle: saline
[8] = dose: 50.0 mg/kg/injection, schedule: Q01DX005 (ip), vehicle: Klucel (hydroxypropylcellulose) (HPC)
[9] = dose: 100.0 mg/kg/injection, schedule: Q01DX005 (ip), vehicle: Klucel (hydroxypropylcellulose) (HPC)
[10] = dose: 200.0 mg/kg/injection, schedule: Q01DX005 (ip), vehicle: Klucel (hydroxypropylcellulose) (HPC)
[11] = dose: 25.0 mg/kg/injection, schedule: Q01DX005 (ip), vehicle: Klucel (hydroxypropylcellulose) (HPC)
[12] = dose: 60.0 mg/kg/injection, schedule: Q01DX005 (ip), vehicle: saline with Tween-80
[13] = dose: 120.0 mg/kg/injection, schedule: Q01DX005 (ip), vehicle: saline with Tween-80
[14] = dose: 240.0 mg/kg/injection, schedule: Q01DX005 (ip), vehicle: saline with Tween-80
[15] = dose: 100.0 mg/kg/injection, schedule: Q04DX002 (ip), vehicle: saline
[16] = dose: 200.0 mg/kg/injection, schedule: Q04DX002 (ip), vehicle: saline
[17] = dose: 400.0 mg/kg/injection, schedule: Q04DX002 (ip), vehicle: saline

Measured: T/C

COc1cc2c(cc1OC)C(C)N1CCc3cc(OC)c(OC)cc3C1C2 (centres undefined)
inactive: dose: 1.56 mg/kg/injection, schedule: Q01DX009 (ip), vehicle: Klucel (hydroxypropylcellulose) (HPC) 103 % of control | dose: 3.12 mg/kg/injection, schedule: Q01DX009 (ip), vehicle: Klucel (hydroxypropylcellulose) (HPC) 98 % of control

CCC[C@H]1N=C(OCC)N[C@@H]1CCC
inactive: dose: 6.25 mg/kg/injection, schedule: Q01DX005 (ip), vehicle: Klucel (hydroxypropylcellulose) (HPC) 108 % of control | [1] 117 % of control

CCN(CC)CCCNc1cnc2ccc(OC)cc2n1
inactive: dose: 25.0 mg/kg/injection, schedule: Q04DX003 (ip), vehicle: saline 94 % of control | dose: 50.0 mg/kg/injection, schedule: Q04DX003 (ip), vehicle: saline 91 % of control | [2] 103 % of control

c1ccc(C(c2ccccc2)(c2cccs2)N2CCCCC2)cc1
inactive: dose: 100.0 mg/kg/injection, schedule: Q01DX001 (ip), vehicle: Klucel (hydroxypropylcellulose) (HPC) 99 % of control | dose: 200.0 mg/kg/injection, schedule: Q01DX001 (ip), vehicle: Klucel (hydroxypropylcellulose) (HPC) 94 % of control | dose: 400.0 mg/kg/injection, schedule: Q01DX001 (ip), vehicle: Klucel (hydroxypropylcellulose) (HPC) 96 % of control

CN(C)/N=C/c1ccc(O)cc1
inactive: dose: 50.0 mg/kg/injection, schedule: Q01DX009 (ip), vehicle: Klucel (hydroxypropylcellulose) (HPC) 118 % of control | [3] 100 % of control and 101 % of control | [4] 102 % of control and 114 % of control

CN(C)C(C(N(C)C)=[N+](C)C)=[N+](C)C
inactive: [5] 108 % of control and 109 % of control and 89 % of control | [6] 110 % of control and 111 % of control | [7] 100 % of control and 103 % of control and 88 % of control

NC(=S)N/N=C/c1cn(-c2ccccc2[N+](=O)[O-])cn1
inactive: dose: 100.0 mg/kg/injection, schedule: Q04DX003 (ip), vehicle: Klucel (hydroxypropylcellulose) (HPC) 103 % of control | dose: 200.0 mg/kg/injection, schedule: Q04DX003 (ip), vehicle: Klucel (hydroxypropylcellulose) (HPC) 90 % of control

C=C(C)CCC(N)C(=O)O (centres undefined)
inactive: [5] 107 % of control | [6] 104 % of control | [7] 100 % of control

CC(N=c1ccccn1O)C(O)c1ccccc1 (centres undefined)
inactive: [7] 101 % of control | dose: 100.0 mg/kg/injection, schedule: Q01DX009 (ip), vehicle: saline 97 % of control | dose: 200.0 mg/kg/injection, schedule: Q01DX009 (ip), vehicle: saline 97 % of control

O=C(COc1cccc2c(=O)cc(-c3ccccc3)oc12)OCCN1CCOCC1
inactive: [8] 98 % of control | [9] 104 % of control | [10] 91 % of control

CS(=O)CCCN=C=S (centres undefined)
inactive: dose: 18.75 mg/kg/injection, schedule: Q01DX009 (ip), vehicle: saline with Tween-80 111 % of control | dose: 37.5 mg/kg/injection, schedule: Q01DX009 (ip), vehicle: saline with Tween-80 110 % of control | dose: 75.0 mg/kg/injection, schedule: Q01DX009 (ip), vehicle: saline with Tween-80 111 % of control

CC12CCC(O1)C1C(=O)NC(=O)C12 (centres undefined)
inactive: dose: 50.0 mg/kg/injection, schedule: Q01DX005 (ip), vehicle: saline 102 % of control | dose: 100.0 mg/kg/injection, schedule: Q01DX005 (ip), vehicle: saline 108 % of control | dose: 200.0 mg/kg/injection, schedule: Q01DX005 (ip), vehicle: saline 100 % of control

O[C@@]12CO[C@@H](c3ccc4c(c3)OCO4)[C@@H]1CO[C@H]2c1ccc2c(c1)OCO2
inactive: [11] 92 % of control | [8] 90 % of control | [9] 86 % of control | [10] 95 % of control

O=C1CCS(=O)(=O)c2ccccc21
inactive: dose: 50.0 mg/kg/injection, schedule: Q01DX009 (ip), vehicle: saline with Tween-80 100 % of control

O=C(NO)/C(CC(=O)c1ccc(O)cc1)=N\O
inactive: [12] 104 % of control | [13] 101 % of control | [14] 105 % of control

CN1C(Cc2ccccc2)N(S(=O)(=O)C2C=CC=CC=C2)CC1(C)C (centres undefined)
inactive: [2] 101 % of control | dose: 200.0 mg/kg/injection, schedule: Q04DX003 (ip), vehicle: saline 99 % of control | dose: 400.0 mg/kg/injection, schedule: Q04DX003 (ip), vehicle: saline 93 % of control

COC(=O)n1oc2ccccc2c1=O
inactive: dose: 100.0 mg/kg/injection, schedule: Q04DX002 (ip), vehicle: Klucel (hydroxypropylcellulose) (HPC) 99 % of control | dose: 200.0 mg/kg/injection, schedule: Q04DX002 (ip), vehicle: Klucel (hydroxypropylcellulose) (HPC) 101 % of control | dose: 400.0 mg/kg/injection, schedule: Q04DX002 (ip), vehicle: Klucel (hydroxypropylcellulose) (HPC) 101 % of control

CCC1=C[C@H]2CN(CCc3c([nH]c4ccccc34)[C@@](C(=O)OC)(c3cc4c(cc3OC)N(C)[C@H]3C(C(=O)NC)=C[C@]5(CC)C=CCN6CC[C@]43[C@@H]65)C2)C1
inactive: dose: 1.0 mg/kg/injection, schedule: Q01DX001 (ip), vehicle: other 101 % of control | dose: 2.0 mg/kg/injection, schedule: Q01DX001 (ip), vehicle: other 101 % of control | dose: 4.0 mg/kg/injection, schedule: Q01DX001 (ip), vehicle: other 107 % of control | dose: 8.0 mg/kg/injection, schedule: Q01DX001 (ip), vehicle: other 108 % of control | dose: 16.0 mg/kg/injection, schedule: Q01DX001 (ip), vehicle: other 114 % of control | dose: 32.0 mg/kg/injection, schedule: Q01DX001 (ip), vehicle: other 112 % of control and 123 % of control | dose: 64.0 mg/kg/injection, schedule: Q01DX001 (ip), vehicle: other 119 % of control

CCC1OC(/C(C)=C/C(C)/C=C/C2C(C)C2/C=C/C2OC(CC(=O)O)CC(O)C2O)CC=C1C (centres undefined)
inactive: dose: 16.82 mg/kg/injection, schedule: Q01DX009 (ip), vehicle: saline 100 % of control | dose: 33.65 mg/kg/injection, schedule: Q01DX009 (ip), vehicle: saline 92 % of control | dose: 67.3 mg/kg/injection, schedule: Q01DX009 (ip), vehicle: saline 94 % of control

O=c1oc2c(cc1-c1ccccc1)CCc1ccccc1-2
inactive: [8] 102 % of control | [9] 100 % of control | [10] 102 % of control

CCC(C)C1CCCCC1 (centres undefined)
inactive: [3] 104 % of control | [4] 100 % of control | dose: 400.0 mg/kg/injection, schedule: Q01DX009 (ip), vehicle: Klucel (hydroxypropylcellulose) (HPC) 101 % of control

CC1=c2c(oc3cc(O)c(Nc4c(C)cc(O)cc4O)c(C)c23)=CC(=O)C1=Nc1c(C)cc(O)cc1O
inactive: dose: 60.0 mg/kg/injection, schedule: Q01DX005 (ip), vehicle: Klucel (hydroxypropylcellulose) (HPC) 95 % of control | dose: 120.0 mg/kg/injection, schedule: Q01DX005 (ip), vehicle: Klucel (hydroxypropylcellulose) (HPC) 89 % of control | dose: 240.0 mg/kg/injection, schedule: Q01DX005 (ip), vehicle: Klucel (hydroxypropylcellulose) (HPC) 95 % of control

[CH3][Sn]([CH3])([O]C(=O)c1ccc2c(c1)OCO2)[O]C(=O)c1ccc2c(c1)OCO2
inactive: [8] 112 % of control | [9] 112 % of control | [10] 109 % of control

OC(CCCCOc1ccccc1)(c1ccccc1)c1ccccc1
inactive: [12] 100 % of control | [13] 101 % of control | [14] 101 % of control

N#CCNCC#N
inactive: [15] 102 % of control | [16] 103 % of control | [17] 102 % of control

Cc1nc(NN)nc(N)c1S(=O)(=O)Cc1ccc(Cl)cc1
inactive: [15] 94 % of control | [16] 90 % of control | [17] 90 % of control

O=C(c1ccccc1)c1nonc1C(=O)c1ccccc1
inactive: dose: 100.0 mg/kg/injection, schedule: Q01DX001 (ip), vehicle: saline with Tween-80 95 % of control | dose: 200.0 mg/kg/injection, schedule: Q01DX001 (ip), vehicle: saline with Tween-80 104 % of control | dose: 400.0 mg/kg/injection, schedule: Q01DX001 (ip), vehicle: saline with Tween-80 95 % of control

COc1ccc2c(c1OC)N(C)CC1=C2OC(C)(C)C2C1CC1(C)CC2c2c(c3ccc(OC)c(OC)c3n(C)c2=O)O1 (centres undefined)
inactive: [1] 90 % of control | [11] 93 % of control | [8] 90 % of control

From PubChem BioAssay AID330 (DTP/NCI, 2004)
